From patent US20200345745A1 (University of Leicester, priority 2017, published 2020)
Like-named read-outs stand apart in the source and are kept apart here.

Legend:
[1] = test system: KMO; details: literature value; read-out: IC50 (KMO inhibition); cited from earlier work
[2] = biological target: T1, recombinant Homo Sapiens kynurenine 3-monooxygenase (HsKMO) (Homo sapiens, UniProt O15229); assay: Inhibition of recombinant Homo sapiens KMO (NADPH consumption at 340 nm); assay type: biochemical; details: 0.5 μM HsKMO, L-Kyn 250 μM, NADPH 200 μM, pH 8.0, triplicate
T1 construct: The gene encoding full-length human KMO was synthesized; glutathione S-transferase (GST; vector pAcGHLT-A); made in house; host or cells: Hi5 insect cells (baculovirus)
Procedure: The gene encoding full-length human KMO was synthesized (GeneScript) and codon optimized for overexpression in […]. The gene was subcloned into the baculovirus transfer vector pAcGHLT-A-glutathione S-transferase as a Ndel-EcoRI fragment and transfected into Hi5 cells along with linearized baculovirus using the following sense and antisense primers: […]
Cultured cells were lysed in 20 mM potassium phosphate buffer, pH 7.5, 10% glycerol, 0.5% n-dodecyl β-D-maltoside (DDM), 150 mM NaCl, 7 mM 2-mercaptoethanol and 50 μM FAD supplemented with protease inhibitors (Sigma-Aldrich). Soluble lysate was incubated with 3 ml pre-equilibrated glutathione uniflow resin (Clontech). […] Fractions (0.5 ml) were eluted with buffer C (buffer B+33 mM glutathione) and fractions containing KMO pooled, concentrated and loaded onto a Superdex 200 (10/30) size-exclusion chromatography column. Pure KMO was pooled and stored at −80° C.
(§1) KMO activity was measured in the presence of a range of compound concentrations by monitoring the consumption of NADPH at 340 nm upon addition of enzyme via a Cary 50 UV-Vis spectrophotometer (Agilent Technologies). All measurements were performed in triplicate. The IC50 values for each compound were obtained by plotting the percentage inhibition versus the inhibitor concentration and fitting to the Morrison equation using Origin 9.0 software (OriginLab, Northampton, Mass.).

[3] = biological target: recombinant P. fluorescens kynurenine 3-monooxygenase (PfKMO) (Pseudomonas fluorescens, UniProt Q84HF5, C252S/C461S); assay: biochemical
Procedure: Protein was expressed by growing transformed cells in auto induction LB medium (Fermentas) containing 100 μg/mL for 24 hours at 22° C. […] The cell lysate was centrifuged at 180,000 g for 1 hour at 4° C. to remove cell debris. The soluble cell lysate was loaded onto Q-sepharose column equilibrated with anion exchange buffer (20 mM HEPES pH 7.5, 1 mM DTT with 10 mM NaCl) and bound protein was eluted with a gradient (5 column volumes) of increasing NaCl concentration from 50 to 100 mM in anion exchange buffer. Fractions containing KMO were pooled and precipitated in 50% saturated ammonium sulphate by adding precipitation buffer (20 mM HEPES pH 7.5, 3 M ammonium sulphate, 1 mM DTT). The precipitated protein was pelleted by centrifugation at 12,000 g for 20 min, resuspended in a small volume of size exclusion buffer (20 mM HEPES pH 7.0, 150 mM sodium acetate, 1 mM DTT) and passed down a Superdex 75 column. Pure PfKMO was pooled and stored at −80° C.
as §1

recombinant P. fluorescens kynurenine 3-monooxygenase (PfKMO), sequence (Q84HF5 whole entry C252S/C461S): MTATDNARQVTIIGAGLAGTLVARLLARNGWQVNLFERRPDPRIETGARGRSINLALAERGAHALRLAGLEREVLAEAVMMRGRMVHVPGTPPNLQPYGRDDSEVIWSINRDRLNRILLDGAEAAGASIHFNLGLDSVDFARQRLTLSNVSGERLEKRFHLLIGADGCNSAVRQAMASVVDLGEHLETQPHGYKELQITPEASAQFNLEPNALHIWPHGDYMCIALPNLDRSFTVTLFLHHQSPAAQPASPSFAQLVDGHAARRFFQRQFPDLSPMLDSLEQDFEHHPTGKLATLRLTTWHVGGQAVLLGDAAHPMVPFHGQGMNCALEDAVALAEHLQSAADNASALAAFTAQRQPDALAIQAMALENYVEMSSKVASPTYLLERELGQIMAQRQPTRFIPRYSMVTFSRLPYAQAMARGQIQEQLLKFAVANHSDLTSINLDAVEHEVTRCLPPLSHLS
T1 sequence (O15229 whole entry): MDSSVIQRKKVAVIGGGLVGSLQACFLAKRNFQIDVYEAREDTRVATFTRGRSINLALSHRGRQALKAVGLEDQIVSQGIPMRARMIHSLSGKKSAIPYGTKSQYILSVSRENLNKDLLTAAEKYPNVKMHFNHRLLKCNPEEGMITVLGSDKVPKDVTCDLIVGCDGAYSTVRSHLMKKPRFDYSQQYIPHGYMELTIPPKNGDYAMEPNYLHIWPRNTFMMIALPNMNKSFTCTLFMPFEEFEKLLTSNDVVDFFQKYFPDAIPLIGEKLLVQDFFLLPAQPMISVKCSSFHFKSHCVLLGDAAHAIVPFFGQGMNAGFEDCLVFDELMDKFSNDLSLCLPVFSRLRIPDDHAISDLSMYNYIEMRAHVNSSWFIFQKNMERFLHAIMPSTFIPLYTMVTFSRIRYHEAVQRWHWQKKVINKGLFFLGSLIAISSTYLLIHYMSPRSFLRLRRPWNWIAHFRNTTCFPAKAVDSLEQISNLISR

NC(CC(=O)c1ccc(Cl)c(Cl)c1)C(=O)O (racemic) [(R,S)-3,4-dichlorobenzoylalanine]
IC50 [1]: 0.9 µM

COC(=O)CN1C(=O)COc2cc(C)c(Cl)c(C)c21 [Example 1, methyl 2-(6-chloro-5,7-dimethyl-3-oxo-1,4-benzoxazin-4-yl)acetate]
IC50 [2]: > 100 µM
IC50 [3]: > 100 µM

CCOC(=O)CN1C(=O)COc2cc(C)c(Cl)c(C)c21 [Example 2, ethyl 2-(6-chloro-5,7-dimethyl-3-oxo-1,4-benzoxazin-4-yl)acetate]
IC50 [2]: > 100 µM
IC50 [3]: > 100 µM

Cc1cc2c(c(C)c1Cl)N(CC(=O)OC(C)C)C(=O)CO2 [Example 3, isopropyl 2-(6-chloro-5,7-dimethyl-3-oxo-1,4-benzoxazin-4-yl)acetate]
IC50 [2]: > 100 µM
IC50 [3]: > 100 µM

Cc1cc2c(c(C)c1Cl)N(CC(=O)OC(C)(C)C)C(=O)CO2 [Example 4, tert-butyl 2-(6-chloro-5,7-dimethyl-3-oxo-1,4-benzoxazin-4-yl)acetate]
IC50 [2]: > 100 µM
IC50 [3]: > 100 µM

Cc1cc2c(c(C)c1Cl)N(CC(=O)N(C)C)C(=O)CO2 [Example 6, 2-(6-chloro-5,7-dimethyl-3-oxo-1,4-benzoxazin-4-yl)-N,N-dimethyl-acetamide]
IC50 [2]: > 100 µM
IC50 [3]: > 100 µM

CNC(=O)CN1C(=O)COc2cc(C)c(Cl)c(C)c21 [Example 7]
IC50 [2]: > 100 µM
IC50 [3]: > 100 µM

Cc1cc2c(c(C)c1Cl)N(CC(N)=O)C(=O)CO2 [Example 8, 2-(6-chloro-5,7-dimethyl-3-oxo-1,4-benzoxazin-4-yl)acetamide]
IC50 [2]: > 100 µM
IC50 [3]: > 100 µM

Cc1cc2c(c(C)c1Cl)N(Cc1nn[nH]n1)C(=O)CO2 [Example 9, 6-chloro-5,7-dimethyl-4-(2H-tetrazol-5-ylmethyl)-1,4-benzoxazin-3-one]
IC50 [2]: 1.28 µM
IC50 ([3]; read-out: IC50 for PfKMO inhibition, 0.1 μM PfKMO, L-Kyn 250 μM, NADPH 200 μM, pH 7.5, triplicate): 17 µM

O=C(O)[C@H]1C[C@@H]1C(=O)c1ccc(Cl)c(Cl)c1 [UPF-648]
IC50 [1]: 0.02 µM
